From the NIST ThermoML archive (doi:10.1016/j.fluid.2016.11.010)

Key:
[1] = for vapor or sublimation pressure: Liquid, Transpiration method
[2] = Molar enthalpy of transition or fusion; details: Crystal; DSC

Cc1ccccc1-n1ccnc1 [1-(o-tolyl)-1H-imidazole]
[1]
Details | vapor or sublimation pressure [kPa]
313.3 K | 0.00112
318.2 K | 0.00165
323.2 K | 0.00266
328.2 K | 0.00389
333.2 K | 0.00587
338.1 K | 0.00828
343.1 K | 0.01155
348.1 K | 0.01711
353.1 K | 0.02295
358 K | 0.03338
363 K | 0.04638

c1ccc(-n2ccnc2)cc1 [1-phenylimidazole]
[1]
Details | vapor or sublimation pressure [kPa]
298.7 K | 0.00041
308.6 K | 0.00105
313.5 K | 0.00158
318.4 K | 0.00254
319.1 K | 0.00269
323.5 K | 0.00393
328.5 K | 0.00594
333.7 K | 0.00902
338.4 K | 0.01334
343.2 K | 0.01799
348.2 K | 0.02552
353.1 K | 0.03567

Brc1ccccc1-n1ccnc1 [2-bromo-phenyl-1H-imidazole]
[1]
Details | vapor or sublimation pressure [kPa]
343.2 K | 0.00369
348.2 K | 0.00534
353.2 K | 0.00754
358.1 K | 0.01128
363.1 K | 0.01573
368 K | 0.0218
374 K | 0.03122

Fc1ccccc1-n1ccnc1 [2-fluoro-phenyl-1H-imidazole]
[1]
Details | vapor or sublimation pressure [kPa]
323.2 K | 0.0041
328.2 K | 0.00615
333.2 K | 0.00892
338.1 K | 0.01364
343.1 K | 0.01948
348.1 K | 0.02761
353.1 K | 0.03781
358.1 K | 0.05311
363 K | 0.0745
367.9 K | 0.09597

COc1ccccc1-n1ccnc1 [2-methoxy-phenyl-1H-imidazole]
[1]
Details | vapor or sublimation pressure [kPa]
333.2 K | 0.00084
338.3 K | 0.00128
343.1 K | 0.00192
348.1 K | 0.00293
353 K | 0.00409
358 K | 0.00591
362.9 K | 0.00864
367.9 K | 0.01198
374.2 K | 0.01855

Brc1ccc(-n2ccnc2)cc1 [4-bromo-phenyl-1H-imidazole]
[1]
Details | vapor or sublimation pressure [kPa]
343.3 K | 0.00037
348.1 K | 0.00065
353 K | 0.00103
358.2 K | 0.00174
363.2 K | 0.00273
368.2 K | 0.00467
374.1 K | 0.00773

Details | Normal melting temperature [°C]
[1], Crystal, DTA | 120.1

Details | Molar enthalpy of transition or fusion [kJ/mol]
[2] | 28.6

Fc1ccc(-n2ccnc2)cc1 [4-fluoro-phenyl-1H-imidazole]
[1]
Details | vapor or sublimation pressure [kPa]
313 K | 0.00108
318.4 K | 0.00166
323.3 K | 0.00268
328.2 K | 0.00401
333.2 K | 0.00563
335.7 K | 0.00702
338.2 K | 0.00834
340.7 K | 0.01004
343.2 K | 0.01191
345.6 K | 0.01481
348.2 K | 0.01727
353.1 K | 0.02449
358.2 K | 0.03573
363.2 K | 0.04969
368.1 K | 0.06685
373.1 K | 0.09256

COc1ccc(-n2ccnc2)cc1 [4-methoxy-phenyl-1H-imidazole]
[1]
Details | vapor or sublimation pressure [kPa]
333.4 K | 0.00061
338.2 K | 0.00094
343.3 K | 0.00147
348.2 K | 0.00215
353.3 K | 0.00328
358.3 K | 0.00469
363.3 K | 0.00695
368.2 K | 0.00969
373.2 K | 0.01433

Cc1ccc(-n2ccnc2)cc1 [4-methyl-phenyl-1H-imidazole]
[1]
Details | vapor or sublimation pressure [kPa]
328.3 K | 0.00266
333 K | 0.00399
338.1 K | 0.00603
340.8 K | 0.00739
345.7 K | 0.01103
350.7 K | 0.01582
355.7 K | 0.02204
360.7 K | 0.0313
365.6 K | 0.04264
370.6 K | 0.0608
375.3 K | 0.07866
